Assay results published in ChEMBL document CHEMBL1201862, “PubChem BioAssay data set” (2004).
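Step 1: Grow cells in 96-well plates. Step 2: Expose to compound for 48 hours at 5 concentrations. Step 3: Interpolate endpoints linearly; if unreached, use highest concentration. The concentration for 50% growth inhibition is given as GI50.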 Activity calls are given as the source filed them. No stated cut-off is given here; in the data, active = GI50 up to about 1.1 µM and inactive = higher.

What was measured:
Experiment in all cases: DTP human tumour cell line panel, 48 h
SNB-19 = system: SNB-19
786-0 = system: 786-0
SW-620 = system: SW-620
U-251 = system: U-251
UACC-62 = system: UACC-62
CAKI-1 = system: CAKI-1
OVCAR-8 = system: OVCAR-8
SF-539 = system: SF-539
NCI-H23 = system: NCI-H23
TK-10 = system: TK-10
LOX IMVI = system: LOX IMVI
PC-3 = system: PC-3
SK-OV-3 = system: SK-OV-3
RXF 393 = system: RXF 393
HT-29 = system: HT-29
SF-295 = system: SF-295
SNB-75 = system: SNB-75
OVCAR-5 = system: OVCAR-5
SN12C = system: SN12C
SK-MEL-5 = system: SK-MEL-5
SK-MEL-28 = system: SK-MEL-28
MDA-MB-435 = system: MDA-MB-435
A498 = system: A498
RPMI-8226 = system: RPMI-8226
EKVX = system: EKVX
M14 = system: M14
T47D = system: T47D
COLO 205 = system: COLO 205
OVCAR-3 = system: OVCAR-3
MDA-MB-231 = system: MDA-MB-231
Malme-3M = system: Malme-3M
A549 = system: A549
HL-60 = system: HL-60
HOP-92 = system: HOP-92
UO-31 = system: UO-31
SF-268 = system: SF-268
HCT-116 = system: HCT-116
KM12 = system: KM12
BT-549 = system: BT-549
SK-MEL-2 = system: SK-MEL-2
NCI/ADR-RES = system: NCI/ADR-RES
ACHN = system: ACHN
HCT-15 = system: HCT-15
Hs-578T = system: Hs-578T
IGROV-1 = system: IGROV-1
HOP-62 = system: HOP-62
MOLT-4 = system: MOLT-4
NCI-H522 = system: NCI-H522
K562 = system: K562
MDA-N = system: MDA-N
CCRF-CEM = system: CCRF-CEM
NCI-H460 = system: NCI-H460
DU-145 = system: DU-145
SR = system: SR
OVCAR-4 = system: OVCAR-4
NCI-H226 = system: NCI-H226
UACC-257 = system: UACC-257

CC(=O)C1=C(C)O[C@@H]2O[C@H](COCc3ccccc3)[C@@H](OCc3ccccc3)[C@H](O)[C@@H]2S1
GI50 (SNB-19): 38 µM (inactive) | GI50 (786-0): 25.1 µM (inactive) | GI50 (SW-620): 26.7 µM (inactive) | GI50 (U-251): 20.8 µM (inactive) | GI50 (UACC-62): 15.5 µM (inactive) | GI50 (CAKI-1): 49.3 µM (inactive) | GI50 (OVCAR-8): 23 µM (inactive) | GI50 (SF-539): 20 µM (inactive) | GI50 (NCI-H23): 20.4 µM (inactive) | GI50 (TK-10): 19.1 µM (inactive) | GI50 (LOX IMVI): 21 µM (inactive) | GI50 (PC-3): 26.2 µM (inactive) | GI50 (SK-OV-3): 25.1 µM (inactive) | GI50 (RXF 393): 13.8 µM (inactive) | GI50 (HT-29): 19.6 µM (inactive) | GI50 (SF-295): 13.8 µM (inactive) | GI50 (SNB-75): 23.3 µM (inactive) | GI50 (OVCAR-5): 24.8 µM (inactive) | GI50 (SN12C): 19.2 µM (inactive) | GI50 (SK-MEL-5): 16.5 µM (inactive) | GI50 (SK-MEL-28): 27.7 µM (inactive) | GI50 (MDA-MB-435): 19 µM (inactive) | GI50 (A498): 25.1 µM (inactive) | GI50 (RPMI-8226): 17.2 µM (inactive) | GI50 (EKVX): 25.1 µM (inactive) | GI50 (M14): 20.4 µM (inactive) | GI50 (T47D): 5.9 µM (inactive) | GI50 (COLO 205): 22.2 µM (inactive) | GI50 (OVCAR-3): 15.2 µM (inactive) | GI50 (MDA-MB-231): 20.3 µM (inactive) | GI50 (Malme-3M): 18.3 µM (inactive) | GI50 (A549): 27.8 µM (inactive) | GI50 (HL-60): 16.4 µM (inactive) | GI50 (HOP-92): 22.9 µM (inactive) | GI50 (UO-31): 22 µM (inactive) | GI50 (SF-268): 15.2 µM (inactive) | GI50 (HCT-116): 16.4 µM (inactive) | GI50 (KM12): 19.6 µM (inactive) | GI50 (BT-549): 21.8 µM (inactive) | GI50 (SK-MEL-2): 20.4 µM (inactive) | GI50 (NCI/ADR-RES): 16.3 µM (inactive) | GI50 (ACHN): 23.3 µM (inactive) | GI50 (HCT-15): 21.3 µM | GI50 (Hs-578T): 17.9 µM (inactive) | GI50 (IGROV-1): 21.1 µM (inactive) | GI50 (HOP-62): 19.5 µM (inactive) | GI50 (MOLT-4): 14 µM (inactive) | GI50 (NCI-H522): 15 µM (inactive) | GI50 (K562): 19.7 µM (inactive) | GI50 (MDA-N): 22.6 µM (inactive) | GI50 (CCRF-CEM): 0.855 µM (active) | GI50 (NCI-H460): 17.5 µM (inactive) | GI50 (DU-145): 20.8 µM (inactive) | GI50 (SR): 22 µM (inactive) | GI50 (OVCAR-4): 24.7 µM (inactive) | GI50 (NCI-H226): 18.8 µM (inactive) | GI50 (UACC-257): 18.3 µM (inactive)
